For one assay, the target named is T1, CDK4/cyclin D1 (Homo sapiens, UniProt P11802).
T1 construct: purchased Life technology
The experiment in a line: Enzyme activity assay CDK4/cyclin D1 (Lance Ultra). In kind it is biochemical. Conditions: 0.3 nM CDK4/cyclin D1, 350 μM ATP, 180 minutes. On the procedure: (§1) CDK4/cyclin D1, CDK6/cyclin D1 (Life technology). ULight labeled polypeptide substrates ULight-4E-BP1 and ULight-MBP (PerkinElmer). Europium labeled anti-myelin basic protein antibody and europium labeled rabbit-derived antibody (PerkinElmer). Envision Multi-label Analyzer (PerkinElmer) for signal detection.
They were respectively dissolved in an enzyme buffer solution comprising: 50 mM hydroxyethylpiperazine ethanesulfuric acid solution at pH 7.5, 1 mM ethylenediaminetetraacetic acid, 10 mM magnesium chloride, 0.01% Brij-35, 2 mM dithiothreitol. After the reaction was begun, the OptiPlate 384-well plate was sealed with a top heat seal film TopSeal-A, and incubated at room temperature for 180 minutes.
(§2) The termination buffer solution of the enzymatic reaction was prepared, and EDTA was dissolved in a 1-fold diluted assay buffer solution. The reaction was terminated and incubated at room temperature for 5 minutes. 5 μL of the assay mixed solution (prepared with europium labeled anti-myelin basic protein antibody and europium labeled rabbit-derived antibody, respectively) was added to the reactions of CDK4/cyclin D1 and CDK6/cyclin D1, respectively, and incubated at room temperature for 60 minutes. The reaction signal was detected by Envision according to the time-resolved fluorescence resonance energy transfer theory.

Another assay deals with T2, CDK6/cyclin D1 (Homo sapiens, UniProt Q00534).
T2 construct: purchased Life technology
T2 sequence (Q00534 whole entry): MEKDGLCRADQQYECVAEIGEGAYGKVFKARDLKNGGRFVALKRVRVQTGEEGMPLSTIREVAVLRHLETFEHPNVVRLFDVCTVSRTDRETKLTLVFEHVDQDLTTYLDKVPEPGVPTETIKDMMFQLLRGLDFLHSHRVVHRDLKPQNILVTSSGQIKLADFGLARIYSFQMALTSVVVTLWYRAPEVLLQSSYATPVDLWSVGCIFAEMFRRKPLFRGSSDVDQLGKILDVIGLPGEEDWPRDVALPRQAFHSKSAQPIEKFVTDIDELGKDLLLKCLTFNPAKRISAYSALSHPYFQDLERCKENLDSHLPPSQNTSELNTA
T2 sequence (P24385 whole entry partner): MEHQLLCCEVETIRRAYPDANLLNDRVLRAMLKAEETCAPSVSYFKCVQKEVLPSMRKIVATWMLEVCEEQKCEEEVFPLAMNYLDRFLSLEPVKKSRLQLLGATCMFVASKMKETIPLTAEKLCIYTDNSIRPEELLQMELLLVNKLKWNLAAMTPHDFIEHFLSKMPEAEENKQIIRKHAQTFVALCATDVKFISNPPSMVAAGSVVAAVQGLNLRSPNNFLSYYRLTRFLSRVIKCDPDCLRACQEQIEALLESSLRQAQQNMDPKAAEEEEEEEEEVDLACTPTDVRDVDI
In words: Enzyme activity assay CDK6/cyclin D1 (Lance Ultra). Conditions: 0.8 nM CDK6/cyclin D1, 250 μM ATP, 180 minutes. The assay is classed as biochemical. How it is done: as §1
They were respectively dissolved in an enzyme buffer solution comprising: 50 mM hydroxyethylpiperazine ethanesulfuric acid solution at pH 7.5, 1 mM ethylenediaminetetraacetic acid, 10 mM magnesium chloride, 0.01% Brij-35, 2 mM dithiothreitol. After the reaction was started, the OptiPlate 384-well plate was sealed with a top heat seal film TopSeal-A and incubated at room temperature for 180 minutes.
as §2

In a further assay the test system is NCI-H358 cells. In words: Cell viability assay NCI-H358 (CellTiter-Glo). In kind it is cell-based. Conditions: Homo sapiens, 168 h; NCI-H358, incubated for 7 days. On the procedure:
The NCI-H358 cell line is from the cell bank of the Department of Biology of WuXi Apptec Co. Ltd. Envision Multi-Label Analyzer (PerkinElmer).
1) 100 μL of phosphate buffer solution was added to the peripheral wells of the 384-well plate and 40 μL of NCI-H358 cell suspension was added to the other wells containing 250 NCI-H358 cells. The cell plate was then placed in a carbon dioxide incubator and incubated overnight.
2) A 3-fold gradient dilution was subjected to the tested compounds using Echo. Each compound was diluted by 10 concentration gradients (diluted from 25 μM to 1.27 nM), 100 nL of which was added to the corresponding wells of the cell plate. The cell plate was then placed in a carbon dioxide incubator and incubated for 7 days.
3) 20 μL of Promega CellTiter-Glo reagent was added to each well of the cell plate, and shaken for 10 minutes away from light at room temperature to stabilize the luminescence signal. Readings were performed using a PerkinElmer Envision Multi-label Analyzer.
Table 1 provides the inhibitory activity of the compounds of the present invention against the proliferation of H358 cells.
For orientation: Cellular ATP, detected with luciferase, serves as a proxy for viable cell number.

The test system of assay [1] is LU-01-0393 lung cancer patient-derived tumor tissue xenograft (PDX). In words: In vivo pharmacodynamic study (1), LU-01-0393 PDX. Conditions: 60 mg/kg orally daily. Set-up: species or system BALB/c nude mice. How it is done:
The in vivo pharmacodynamic experiments were performed on the BALB/c nude mice implanted subcutaneously with the LU-01-0393 lung cancer patient-derived tumor tissue xenograft (PDX).
BALB/c nude mice, female, 6-8 weeks, weighing approximately 17-21 g, were placed in a single ventilated cage (5 mice per cage) under a special pathogen free environment. All of the cages, beddings and water were disinfected before use. All of the animals were permitted free access to a standard certified commercial laboratory diet. A total of 36 mice purchased from Vital River Laboratory Animal Co., LTD, Beijing were used for the study. Each mouse was implanted subcutaneously with a tumor LU-01-0393 FP4 section (20-30 mm^3) in the right back for tumor growth. The dosing initiated when the average tumor volume reached about 150-200 mm^3. The tumor volume was measured twice a week using a two-dimensional caliper, and the volume was measured in mm^3, calculated by the following the formula: V=0.5 a×b^2, wherein, a and b were the long and short diameters of the tumor, respectively. The antitumor efficacy was determined by dividing the average increase in the tumor volume of the animals treated with the compound by the average increase in the tumor volume of the untreated animals.

T1 sequence (P11802 whole entry): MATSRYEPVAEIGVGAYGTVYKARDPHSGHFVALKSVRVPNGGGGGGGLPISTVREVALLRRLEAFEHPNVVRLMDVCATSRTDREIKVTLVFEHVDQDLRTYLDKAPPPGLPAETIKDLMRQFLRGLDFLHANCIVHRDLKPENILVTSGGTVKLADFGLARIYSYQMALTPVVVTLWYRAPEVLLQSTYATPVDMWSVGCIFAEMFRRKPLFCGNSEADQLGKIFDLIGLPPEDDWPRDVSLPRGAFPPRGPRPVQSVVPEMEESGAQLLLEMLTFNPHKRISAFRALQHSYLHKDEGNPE
T1 sequence (P24385 whole entry partner): as the sequence (P24385 whole entry partner) above

On to `CC(=O)c1c(C)c2cnc(Nc3cnc(N4CC5CCC(C4)N5C)cn3)cc2n(C2CCCC2)c1=O` [Example 19], for which the results for the IC50 on CDK4/cyclin D1, against CDK6/cyclin D1 and with NCI-H358 cells were 7 nM, 3.7 nM and 214 nM, respectively.
The like results for `CC(=O)c1c(C)c2cnc(Nc3cnc(N4CCN(C)C(C)(C)C4)cn3)cc2n(C2CCCC2)c1=O` [Example 14] were, in that order, 7.1 nM, 2.4 nM and 197 nM.
The matching figures for `CC(=O)c1c(C)c2cnc(Nc3cnc(N4CCN(C(C)C)C(C)(C)C4)cn3)cc2n(C2CCCC2)c1=O` [Example 15]: 5.7 nM, 3.1 nM and 262 nM.
The matching figures for `CC(=O)c1c(C)c2cnc(Nc3cnc(N4CCN(C(C)C)[C@@H](C)C4)cn3)cc2n(C2CCCC2)c1=O` [Example 11]: 5.6 nM, 3.1 nM and 278 nM.
Take `CC(=O)c1c(C)c2cnc(Nc3cnc(N4CCNCC4)cn3)cc2n(C2CCCC2)c1=O` [Example 1, 3-acetyl-1-cyclopentyl-4-methyl-7-[(5-piperazin-1-ylpyrazin-2-yl)amino]-1,6-naphthyridin-2-one]: in assay [1] (Day 0), the “Gross tumor volume Day 0” value was 144 mm^3. Also, in assay [1] (Day 7), the “Gross tumor volume Day 7” value was found to be 132 mm^3. Further, the “Gross tumor volume Day 14” value in assay [1] (Day 14) stood at 182 mm^3. Also, the “Gross tumor volume Day 20” value in assay [1] (Day 20) worked out at 212 mm^3.
Consider `CC(=O)c1c(C)c2cnc(Nc3cnc(C4CCNCC4)cn3)cc2n(C2CCCC2)c1=O` [Example 28], for which the IC50 (usually the concentration needed to halve the response being measured) on CDK4/cyclin D1 amounted to 8.3 nM; against CDK6/cyclin D1, 3.5 nM; in the assay with NCI-H358 cells it was 295 nM.
The like results for `CC(=O)c1c(C)c2cnc(Nc3cnc(N4CCN(CCN)CC4)cn3)cc2n(C2CCCC2)c1=O` [Example 35] were, in that order, 5.06 nM, 2.97 nM and 189 nM.
The matching figures for `CC(=O)c1c(C)c2cnc(Nc3cnc(N4CCN[C@@H](C)C4)cn3)cc2n(C2CCCC2)c1=O` [Example 9, 3-acetyl-1-cyclopentyl-4-methyl-7-[[5-[(3S)-3-methylpiperazin-1-yl]pyrazin-2-yl]amino]-1,6-naphthyridin-2-one]: 9.1 nM, 3.4 nM and 196 nM.
The matching figures for `CC(=O)c1c(C)c2cnc(Nc3cnc(N4CCN(CCO)CC4)cn3)cc2n(C2CCCC2)c1=O` [Example 33]: 8.62 nM, 4.66 nM and 153 nM.

The values above are taken from US10676474B2, “1,6-naphthyridine derivatives as CDK4/6 inhibitor” (CSTONE PHARMACEUTICALS, priority 2016, dated 2020).
